Measurements: US4568490A, “Aminopropylaminobleomycin derivatives and process for preparation thereof” (Zaidan Hojin Biseibutsu Kagaku Kenkyu Kai, priority 1981, dated 1986)

Experiments:
[1] = system: Mycobacterium smegmatis ATCC 607; assay: Antimicrobial activity, agar plate-cylinder method; assay type: cell-based; settings: Cu-free form; bleomycin A2 (Cu-free form) standard assumed 1,000 mcg/mg
Experimental: (§1) The activity was assayed against the above test microorganisms by the method of agar plate-cylinder, assuming the potency of bleomycin A2 (Cu-free form), used as standard, to be 1,000 mcg/mg.

Bacillus subtilis = assay: Antimicrobial activity, agar plate-cylinder method; assay type: cell-based; settings: Cu-free form; bleomycin A2 (Cu-free form) standard assumed 1,000 mcg/mg
Experimental: (1) Antimicrobial activity against Mycobacterium smegmatis ATCC 697 and Bacillus subtilis.
as §1

Hela S3 cells = assay: Growth inhibitory activity against Hela S3 cells; assay type: cell-based; settings: Cu-free form; Hela S3, 3 days incubation with compound
Experimental: The percentage growth inhibition was calculated using the equation: […] wherein A is the ultimate number of cells on the third day from the addition of a test sample, B is the ultimate number of cells in the control (without the addition of test sample), and C is the number of cells on the day of addition of the test sample.

ICR strain mice = assay: Pulmonary toxicity (pulmonary fibrosis) in mice, intraperitoneal injection; assay type: in vivo; settings: 5 mg/kg i.p. once a day for 10 days; for Grade of pulmonary fibrosis, % / Incidence of pulmonary fibrosis, % / Incidence: number of mice suffering from pulmonary fibrosis / Grade: total score of pulmonary fibrosis/total number of test animal: autopsy after 5 weeks; for Incidence: number of mice suffering from pulmonary fibrosis: affected/total mice; for Grade: total score of pulmonary fibrosis/total number of test animal: score 0-6 points; for Grade of pulmonary fibrosis, Ratio / Incidence of pulmonary fibrosis, Ratio: reference of the ratio not stated
Experimental: (3) Pulmonary toxicity (pulmonary fibrosis) in mice.
ICR strain mice (male; 15 weeks old; 9 mice per group) were used. Each mouse was administered with a daily dose of 5 mg/kg of the test sample by intraperitoneal injection, once a day, for 10 consecutive days. After completion of the predetermined administration, the mice were kept for 5 weeks under observation, then slaughtered, and autopsied to examine the incidence and grade of pulmonary fibrosis. The evaluation was made by comparing the number of administered mice suffering from pulmonary fibrosis and the grade of the disease.
In Tables 4A and 4B, the grade was numerically rated as follows:
1 point: Accumulation of exudate in pulmonary alveoli and fibrosis-like change in alveolar septum.
2 points: Fibrosis in several areas.
4 points: Scattered fibrosis.
6 points: Fibrosis in more than two-thirds of the total area.

## Cc1c(N)nc(C(CC(N)=O)NCC(N)C(N)=O)nc1C(=O)NC(C(=O)NC(C)C(O)C(C)C(=O)NC(C(=O)NCCc1nc(-c2nc(C(=O)NCCCN(C)CCCNCC3CCCCCCCCCCCC3)cs2)cs1)C(C)O)C(OC1OC(CO)C(O)C(O)C1OC1OC(CO)C(O)C(OC(N)=O)C1O)c1cnc[nH]1 (stereo not drawn) [compound 47, 3-{N--Methyl-N--[3'-(cyclotridecanylmethylamino)propyl]amino}propylaminoBLM]
[1]
  Antimicrobial potency of Cu--free compound, against Mycobacterium smegmatis ATCC 607: 3915 mcg potency per mg
Bacillus subtilis
  Antimicrobial potency of Cu--free compound, against Bacillus subtilis: 1760 mcg potency per mg
Hela S3 cells
  50% growth inhibition concentration (ID50) of Cu--free compound against cultured Hela cell: 0.18 µg/mL
ICR strain mice
  Grade of pulmonary fibrosis, %: 0%
  Incidence of pulmonary fibrosis, %: 0%
  Incidence: number of mice suffering from pulmonary fibrosis: 0/9
  Grade: total score of pulmonary fibrosis/total number of test animal: 0/27
  Grade of pulmonary fibrosis, Ratio: 0.00
  Incidence of pulmonary fibrosis, Ratio: 0.00

## Cc1c(N)nc(C(CC(N)=O)NCC(N)C(N)=O)nc1C(=O)NC(C(=O)NC(C)C(O)C(C)C(=O)NC(C(=O)NCCc1nc(-c2nc(C(=O)NCCCN(C)CCCN(Cc3ccc(OCc4ccc(Cl)cc4)c(OCc4ccc(Cl)cc4)c3)Cc3ccc(OCc4ccc(Cl)cc4)c(OCc4ccc(Cl)cc4)c3)cs2)cs1)C(C)O)C(OC1OC(CO)C(O)C(O)C1OC1OC(CO)C(O)C(OC(N)=O)C1O)c1cnc[nH]1 (stereo not drawn) [compound 48, 3-{N--Methyl-N--[3'-(bis(3",4"di(p-chlorobenzyloxy)benzyl)amino)propyl]amino}propylaminoBLM]
[1]
  Antimicrobial potency of Cu--free compound, against Mycobacterium smegmatis ATCC 607: 14 mcg potency per mg
Bacillus subtilis
  Antimicrobial potency of Cu--free compound, against Bacillus subtilis: 8 mcg potency per mg
Hela S3 cells
  50% growth inhibition concentration (ID50) of Cu--free compound against cultured Hela cell: 0.058 µg/mL
ICR strain mice
  Grade of pulmonary fibrosis, %: 0%
  Incidence of pulmonary fibrosis, %: 0%
  Incidence: number of mice suffering from pulmonary fibrosis: 0/9
  Grade: total score of pulmonary fibrosis/total number of test animal: 0/27
  Grade of pulmonary fibrosis, Ratio: 0.00
  Incidence of pulmonary fibrosis, Ratio: 0.00

## Cc1c(N)nc(C(CC(N)=O)NCC(N)C(N)=O)nc1C(=O)NC(C(=O)NC(C)C(O)C(C)C(=O)NC(C(=O)NCCc1nc(-c2nc(C(=O)NCCCN(C)CCCN(Cc3ccc(OCc4ccc(Cl)c(Cl)c4)c(OCc4ccc(Cl)c(Cl)c4)c3)Cc3ccc(OCc4ccc(Cl)c(Cl)c4)c(OCc4ccc(Cl)c(Cl)c4)c3)cs2)cs1)C(C)O)C(OC1OC(CO)C(O)C(O)C1OC1OC(CO)C(O)C(OC(N)=O)C1O)c1cnc[nH]1 (stereo not drawn) [compound 49, 3-{N--Methyl-N--[3'(bis(3",4"-di(m,p-dichlorobenzyloxy)benzyl)amino)propyl]amino}propylaminoBLM]
[1]
  Antimicrobial potency of Cu--free compound, against Mycobacterium smegmatis ATCC 607: 23 mcg potency per mg
Bacillus subtilis
  Antimicrobial potency of Cu--free compound, against Bacillus subtilis: 8 mcg potency per mg
Hela S3 cells
  50% growth inhibition concentration (ID50) of Cu--free compound against cultured Hela cell: 0.063 µg/mL
ICR strain mice
  Grade of pulmonary fibrosis, %: 0%
  Incidence of pulmonary fibrosis, %: 0%
  Incidence: number of mice suffering from pulmonary fibrosis: 0/9
  Grade: total score of pulmonary fibrosis/total number of test animal: 0/27
  Grade of pulmonary fibrosis, Ratio: 0.00
  Incidence of pulmonary fibrosis, Ratio: 0.00

## COc1ccc(COc2ccc(CN(CCCN(C)CCCNC(=O)c3csc(-c4csc(CCNC(=O)C(NC(=O)C(C)C(O)C(C)NC(=O)C(NC(=O)c5nc(C(CC(N)=O)NCC(N)C(N)=O)nc(N)c5C)C(OC5OC(CO)C(O)C(O)C5OC5OC(CO)C(O)C(OC(N)=O)C5O)c5cnc[nH]5)C(C)O)n4)n3)Cc3ccc(OCc4ccc(OC)cc4)c(OCc4ccc(OC)cc4)c3)cc2OCc2ccc(OC)cc2)cc1 (stereo not drawn) [compound 50]
[1]
  Antimicrobial potency of Cu--free compound, against Mycobacterium smegmatis ATCC 607: 145 mcg potency per mg
Bacillus subtilis
  Antimicrobial potency of Cu--free compound, against Bacillus subtilis: 35 mcg potency per mg
Hela S3 cells
  50% growth inhibition concentration (ID50) of Cu--free compound against cultured Hela cell: 0.70 µg/mL
ICR strain mice
  Grade of pulmonary fibrosis, %: 0%
  Incidence of pulmonary fibrosis, %: 0%
  Incidence: number of mice suffering from pulmonary fibrosis: 0/9
  Grade: total score of pulmonary fibrosis/total number of test animal: 0/27
  Grade of pulmonary fibrosis, Ratio: 0.00
  Incidence of pulmonary fibrosis, Ratio: 0.00

## Cc1c(N)nc(C(CC(N)=O)NCC(N)C(N)=O)nc1C(=O)NC(C(=O)NC(C)C(O)C(C)C(=O)NC(C(=O)NCCc1nc(-c2nc(C(=O)NCCCN(C)CCCN(Cc3ccc(OCc4ccc(OCc5ccccc5)cc4)cc3)Cc3ccc(OCc4ccc(OCc5ccccc5)cc4)cc3)cs2)cs1)C(C)O)C(OC1OC(CO)C(O)C(O)C1OC1OC(CO)C(O)C(OC(N)=O)C1O)c1cnc[nH]1 (stereo not drawn) [compound 51]
[1]
  Antimicrobial potency of Cu--free compound, against Mycobacterium smegmatis ATCC 607: 163 mcg potency per mg
Bacillus subtilis
  Antimicrobial potency of Cu--free compound, against Bacillus subtilis: 46 mcg potency per mg
Hela S3 cells
  50% growth inhibition concentration (ID50) of Cu--free compound against cultured Hela cell: 0.12 µg/mL
ICR strain mice
  Grade of pulmonary fibrosis, %: 0%
  Incidence of pulmonary fibrosis, %: 0%
  Incidence: number of mice suffering from pulmonary fibrosis: 0/9
  Grade: total score of pulmonary fibrosis/total number of test animal: 0/27
  Grade of pulmonary fibrosis, Ratio: 0.00
  Incidence of pulmonary fibrosis, Ratio: 0.00

## Cc1c(N)nc(C(CC(N)=O)NCC(N)C(N)=O)nc1C(=O)NC(C(=O)NC(C)C(O)C(C)C(=O)NC(C(=O)NCCc1nc(-c2nc(C(=O)NCCCN(C)CCCN(Cc3ccc(OCC4CCCCCCC4)cc3)Cc3ccc(OCC4CCCCCCC4)cc3)cs2)cs1)C(C)O)C(OC1OC(CO)C(O)C(O)C1OC1OC(CO)C(O)C(OC(N)=O)C1O)c1cnc[nH]1 (stereo not drawn) [compound 52, 3-{N--Methyl-N--[3'-(bis(p-cyclooctylmethyloxybenzyl)amino)propyl)amino}propylaminoBLM]
[1]
  Antimicrobial potency of Cu--free compound, against Mycobacterium smegmatis ATCC 607: 268 mcg potency per mg
Bacillus subtilis
  Antimicrobial potency of Cu--free compound, against Bacillus subtilis: 49 mcg potency per mg
Hela S3 cells
  50% growth inhibition concentration (ID50) of Cu--free compound against cultured Hela cell: 0.13 µg/mL
ICR strain mice
  Grade of pulmonary fibrosis, %: 0%
  Incidence of pulmonary fibrosis, %: 0%
  Incidence: number of mice suffering from pulmonary fibrosis: 0/9
  Grade: total score of pulmonary fibrosis/total number of test animal: 0/27
  Grade of pulmonary fibrosis, Ratio: 0.00
  Incidence of pulmonary fibrosis, Ratio: 0.00

## Cc1c(N)nc(C(CC(N)=O)NCC(N)C(N)=O)nc1C(=O)NC(C(=O)NC(C)C(O)C(C)C(=O)NC(C(=O)NCCc1nc(-c2nc(C(=O)NCCCN(C)CCCN(Cc3cc(OCc4ccccc4)c(OCc4ccccc4)c(OCc4ccccc4)c3)Cc3cc(OCc4ccccc4)c(OCc4ccccc4)c(OCc4ccccc4)c3)cs2)cs1)C(C)O)C(OC1OC(CO)C(O)C(O)C1OC1OC(CO)C(O)C(OC(N)=O)C1O)c1cnc[nH]1 (stereo not drawn) [compound 53, 3-{N--Methyl-N--[3'-(bis(3",4",5"-tribenzyloxybenzyl)amino)propyl]amino}propylaminoBLM]
[1]
  Antimicrobial potency of Cu--free compound, against Mycobacterium smegmatis ATCC 607: 11 mcg potency per mg
Bacillus subtilis
  Antimicrobial potency of Cu--free compound, against Bacillus subtilis: 26 mcg potency per mg
Hela S3 cells
  50% growth inhibition concentration (ID50) of Cu--free compound against cultured Hela cell: 0.062 µg/mL
ICR strain mice
  Grade of pulmonary fibrosis, %: 0%
  Incidence of pulmonary fibrosis, %: 0%
  Incidence: number of mice suffering from pulmonary fibrosis: 0/9
  Grade: total score of pulmonary fibrosis/total number of test animal: 0/27
  Grade of pulmonary fibrosis, Ratio: 0.00
  Incidence of pulmonary fibrosis, Ratio: 0.00
